Measurements published in article PMC3199744, “Preformulation and stability in biological fluids of the retrocyclin RC-101, a potential anti-HIV topical microbicide” (AIDS Research and Therapy, 2011).

How the values were obtained:
[1] = Stability in HVF positive for bacterial vaginosis (HVF BV+), detection by LC-MS/MS; conditions: for detection of RC-101 by LC-MS/MS: nanoLC-SRM MS, qualitative
Protocol: After removing the Instead Softcup®, a speculum examination was performed. Swab specimens of the endocervix were obtained using the Mini-tip Culturette TN collection system (Becton Dickinson, Sparks, MD) according to the manufacturer's guidelines. C. trachomatis and N. gonorrhoeae were detected with an amplified DNA assay based on the simultaneous amplification and detection of target DNA amplification primers and a fluorescent label detector probe. Bacterial vaginosis was detected by Gram stain and assessed by the Nugent score, where score results between 0 and 3 indicate a normal flora, between 4 and 6 indicates an intermediate state, and between 7 and 10 indicates bacterial vaginosis.
The HVF from the Instead Softcup® was removed by centrifugation of the conical tube for 10 min at 5,000 rpm. […] HVF was then removed from the cup and the pH of each HVF sample was measured with Fisher Alkacid pH filter strips (Fisher Scientific). All samples collected on a specific day were pooled to be used for the research studies. If the pH of the individual samples was higher than 5, the sample was not included in the pool but it was stored at -80°C for separate analysis. If the sample contained blood, it was immediately discarded. Samples were prepared as described in Table 1. […] Because of its high viscosity, HVF was measured by weight and not by volume. All solutions were prepared fresh and incubated with HVF (or water) at 37°C for specific periods of time (0, 2, 6, 12, 24, 48, and 72 h), unless specified otherwise. At each time point, the samples were centrifuged at 10,000 rpm for 10 min to separate the supernatant from the epithelial cells as described in the cell processing section. Both parts (supernatant and cells) were stored at -80 ± C until analyzed by LC-MS/MS. To evaluate the influence of freezing the fluid prior to the analysis, the last pool of HVF was divided into two samples: one used fresh (at the time of collection), and the other one stored at -80°C for a 3-month period. After that time period, HVF was thawed and processed for blank and RC-101 solution only, as described in Table 1. HVF samples collected with a high pH value indicative of BV were stored at -80°C as previously mentioned. After confirmation of BV on those fluid samples by Gram stain score, the fluid samples (HVF BV^+) were thawed, pooled, and processed as described in Table 1.
At each time point, the sample was removed from the incubation chamber and centrifuged for 10 min at 10,000 rpm, at 4 ± C to separate the supernatant from cell pellet. Supernatant (100 μL) was added to microcentrifuge filters Ultracel YM-10 Microcon MWCO 10,000 (Millipore Corporation, Bedford, MA), which were pre-washed with Milli Q water to eliminate any trace of propylene glycol from the filters. Samples were centrifuged twice for 15 min at 8,500 rpm, at 4 ± C. The filtrate was collected and frozen at -80 ± C until further analysis. A solution of 3 M urea was added to the cell pellet (1:1 w/w) obtained from the first centrifugation, to lyse the cells. This mixture was vortexed three times for 30 sec, and then centrifuged for 10 min at 10,000 rpm, at 4 ± C. The supernatant obtained from the cell lysate was then added to microcentrifuge filters Ultracel YM-10 Microcon MWCO 10,000 pre-washed with Milli Q water. Samples were centrifuged twice for 15 min at 8,500 rpm, at 4 ± C. The filtrate was collected and frozen at -80 ± C until analysis. […] Samples were thawed and added to PepCleanTM C-18 spin columns (Pierce Biotechnology Inc., Rockford, IL) for desalting, after column conditioning with acetonitrile:water (50:50) and equilibration with 0.1% trifluoroacetic acid. The column was washed three times with 0.1% trifluoroacetic acid, and RC-101 was eluted with acetonitrile:water (60:40) in 0.1% trifluoroacetic acid.

[2] = UV spectroscopy for aggregation / ionic strength effect; assay type: physicochemical
Protocol: Changes in the secondary structure of the protein were monitored by Circular dichroism (CD) on an AVIV Circular Dichroism spectrophotometer model 202 (AVIV Biomedical, Lakewood, NJ) equipped with a 0.1 cm path length quartz cell. RC-101 stability was also monitored by using a matrix-assisted laser desorption ionization-time of flight (MALDI-TOF) mass spectrometric (MS) on a Voyager DE-PRO mass spectrometer (Applied Biosystems, Foster City, CA). Potential for aggregation was evaluated by UV-spectroscopy using a NanoDrop ND-1000 spectrophotometer (NanoDrop Technologies Inc, Wilmington, DE).

GICRCICGKGICRCICGR (bicyclic or more) [RC-101, cationic retrocyclin analog; circular 18-residue tetracyclic peptide with three cysteine disulfide bonds]
detection of RC-101 by LC-MS/MS ([1]; HVF BV+ pool 1:1, 37°C, 2 h): -
detection of RC-101 by LC-MS/MS ([1]; HVF BV+ pool 1:1, 37°C, 6 h): -
detection of RC-101 by LC-MS/MS ([1]; HVF BV+ pool 1:1, 37°C, 12 h): -
detection of RC-101 by LC-MS/MS ([1]; HVF BV+ pool 1:1, 37°C, 24 h): -
detection of RC-101 by LC-MS/MS ([1]; HVF BV+ pool 1:1, 37°C, 48 h): -
detection of RC-101 by LC-MS/MS ([1]; HVF BV+ pool (pH 5.8 ± 0.6, stored -80°C) 1:1, 37°C, 0 h): -
detection of RC-101 in HVF BV+ ([1]; HVF BV+ pool (stored -80°C), any time point studied, supernatant or cells, 37°C, LC-MS/MS): undetectable
aggregation (increase in UV absorbance 300 to 600 nm) ([2]; 500 μg/mL, phosphate buffer pH 12, UV scan (data not shown)): presence of aggregates
stability profile with high ionic strength buffers ([2]; UV spectroscopy, pH 4 and 7, high ionic strength (500 mmol/kg) phosphate buffers): did not show any significant differences
